Source: article PMC12610274, “Identification of Marrubiin as a Cathepsin C Inhibitor for Treating Rheumatoid Arthritis” (Molecules, 2025)

Columns and labels:
Dipeptidyl Peptidase 8 = Dipeptidyl Peptidase 8 (Homo sapiens, UniProt Q6V1X1); assay: Recombinant dipeptidyl peptidases isolated enzyme assay, DPP8; type: biochemical; details: read-out: Dipeptidyl Peptidase 8 Enz (IC50: μM)
From the text: Table 3 Inhibitory effects of marrubiin on dipeptidyl peptidase. | column: Dipeptidyl Peptidase 8 Enz (IC50: μM)

Dipeptidyl Peptidase 9 = Dipeptidyl Peptidase 9 (Homo sapiens, UniProt Q86TI2); assay: Recombinant dipeptidyl peptidases isolated enzyme assay, DPP9; type: biochemical; details: read-out: Dipeptidyl Peptidase 9 Enz (IC50: μM)
Dipeptidyl Peptidase 9, sequence (Q86TI2 whole entry, species assumed): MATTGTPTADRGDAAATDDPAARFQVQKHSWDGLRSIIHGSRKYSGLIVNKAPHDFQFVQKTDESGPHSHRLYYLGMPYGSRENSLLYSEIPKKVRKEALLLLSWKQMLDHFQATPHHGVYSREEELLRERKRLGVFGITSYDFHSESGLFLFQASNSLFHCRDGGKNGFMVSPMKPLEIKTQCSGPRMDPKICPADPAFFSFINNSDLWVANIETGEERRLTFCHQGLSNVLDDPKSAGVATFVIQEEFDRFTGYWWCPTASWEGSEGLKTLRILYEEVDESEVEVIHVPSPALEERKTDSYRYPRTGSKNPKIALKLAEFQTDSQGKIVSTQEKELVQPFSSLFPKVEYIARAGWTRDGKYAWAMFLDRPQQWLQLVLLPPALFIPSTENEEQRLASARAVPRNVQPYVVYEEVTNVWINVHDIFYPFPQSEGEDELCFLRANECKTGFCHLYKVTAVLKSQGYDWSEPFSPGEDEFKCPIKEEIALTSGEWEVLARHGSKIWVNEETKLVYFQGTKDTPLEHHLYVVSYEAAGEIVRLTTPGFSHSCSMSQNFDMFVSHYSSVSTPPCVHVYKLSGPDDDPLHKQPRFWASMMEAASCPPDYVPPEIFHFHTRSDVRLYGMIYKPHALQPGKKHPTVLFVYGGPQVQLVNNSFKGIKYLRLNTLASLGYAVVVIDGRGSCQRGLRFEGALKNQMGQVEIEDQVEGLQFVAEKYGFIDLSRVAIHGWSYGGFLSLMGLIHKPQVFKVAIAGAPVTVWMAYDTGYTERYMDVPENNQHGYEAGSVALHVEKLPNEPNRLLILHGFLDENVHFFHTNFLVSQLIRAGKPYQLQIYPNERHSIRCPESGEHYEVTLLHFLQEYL
From the text: Table 3 Inhibitory effects of marrubiin on dipeptidyl peptidase. | column: Dipeptidyl Peptidase 9 Enz (IC50: μM)

CTSK = target: T1, CTSK (Homo sapiens, UniProt P43235); assay: Human recombinant cathepsins isolated enzyme assay, CTSK; type: biochemical; details: read-out: CTSK Enz (IC50: μM)
T1 construct: purchased R&D Systems
T1 sequence (P43235 115-329): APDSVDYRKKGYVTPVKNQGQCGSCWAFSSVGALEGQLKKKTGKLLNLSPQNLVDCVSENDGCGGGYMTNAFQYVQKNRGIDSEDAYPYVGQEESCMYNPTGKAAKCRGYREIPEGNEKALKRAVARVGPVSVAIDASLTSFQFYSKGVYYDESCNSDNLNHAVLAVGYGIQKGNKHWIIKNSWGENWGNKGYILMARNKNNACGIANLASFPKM
From the text: (§1) The protocol for evaluating the inhibitory potency of compounds against other cathepsins referred to the CTSC activity assay. Recombinant human CTSB, CTSL, CTSS and CTSK for testing were also purchased from R&D Systems Biotechnology Company. Recombinant human Cat G, NE, and PR3 For testing were purchased from MedChemExpress. A multi-functional microplate reader was used to measure the absorption of Z-Leu-Arg-AMC at excitation/emission wavelengths of 380/460 nm to assess the activity changes of CTSB and CTSL, while the absorption of MCA-Arg-Pro-Lys-Pro-Val-Glu-NVAL-Trp-Arg-Lys(DNP)-NH2 at 320/405 nm was measured to evaluate the activity changes of CTSS and CTSK. Different assay buffers were prepared for diluting samples and measuring the activities of specific NSPs: a buffer containing 50 mM Tris and 750 mM NaCl (pH 7.4) was used for NE and PR3; a buffer containing 50 mM Tris, 750 mM NaCl, 5 mM EDTA (pH 7.4) was used for Cat G; and a buffer containing 25 mM MES, 50 mM NaCl, 5 mM DTT (pH 6.0) was used for CTSC. Synthetic substrates were employed to assess the activities of NSPs and CTSC: H-Gly-Arg-AMC for CTSC, N-MeSuc-Ala-Ala-Pro-Val-pNA for NE, aminobenzoyl-Val-Ala-Asp-Cys-Ala-Asp-Gln-ethylenediamine 2,4-dinitrophenyl for PR3, and N-Suc-Ala-Ala-Pro-Phe-pNA for Cat G. Each group of tests was independently repeated at least 3 times, and IC50 values were calculated using SPSS 10.0.

NE = assay: AIA model, serum NE activity; type: in vivo, Sprague-Dawley rats; details: rat AIA, high dose 60 mg/kg gavage, 15 days
Protocol: (§2) Thirty 4-week-old male Sprague-Dawley rats (weighing 120–130 g) were randomly divided into 6 groups (5 rats per group) after 1 week of adaptive feeding, namely the normal group, model group, low-dose experimental group (15 mg/kg), medium-dose experimental group (30 mg/kg), high-dose experimental group (60 mg/kg), and positive control group (30 mg/kg). Starting from Day 0 of the experiment, rats in the administration groups and model group were injected intradermally with 0.1 mL of CFA into the left hind paw to induce AIA, while rats in the normal group were injected intradermally with an equal volume (0.1 mL) of normal saline as a control. After 13 consecutive days of feeding, rats treated with CFA successfully developed typical AIA symptoms. […] During the experiment, the body weight, mental state, activity ability, hair color changes, and paw appearance changes of the rats were observed and recorded daily. In addition, on Day 0 of the experiment (baseline period), the basic paw volume of all rats was accurately measured using a plethysmometer, which served as a reference standard for subsequent evaluation of inflammation severity. From Day 13 to Day 28 of the experiment, the paw volume of the rats was measured repeatedly every 3 days. The degree of paw swelling was quantified by calculating the change in paw volume relative to the baseline. […] The cytokine levels in serum were measured. […]

CTSC = CTSC (Homo sapiens, UniProt P53634); assay: Human recombinant CTSC isolated enzyme assay; type: biochemical; set-up: purchased R&D Systems; details: human recombinant CTSC, cell-free, 12-point dose-response; read-out: CTSC Enz (IC50: nM)
CTSC, sequence (P53634 25-134 limits assumed): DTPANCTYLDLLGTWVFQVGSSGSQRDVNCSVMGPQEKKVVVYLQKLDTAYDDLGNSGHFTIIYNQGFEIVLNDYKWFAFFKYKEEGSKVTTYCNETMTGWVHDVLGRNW
CTSC, sequence (P53634 231-394 limits assumed): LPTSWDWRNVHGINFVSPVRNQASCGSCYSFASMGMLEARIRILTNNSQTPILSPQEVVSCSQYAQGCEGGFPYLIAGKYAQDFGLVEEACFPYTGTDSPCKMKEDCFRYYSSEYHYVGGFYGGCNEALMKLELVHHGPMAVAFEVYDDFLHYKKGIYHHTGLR
CTSC, sequence (P53634 395-463 limits assumed): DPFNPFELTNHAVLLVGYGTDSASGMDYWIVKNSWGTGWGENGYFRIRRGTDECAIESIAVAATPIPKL
Protocol: Both recombinant CTSL and CTSC for in vitro cell-free-based enzymatic activity assay can be purchased from R&D Systems (Minneapolis, MN, USA), a biotechnology company. According to the standardized procedures and material ratios provided by R&D Systems, prepare the activation solution (25 mM MES + 5 mM DTT, pH 6.0) and the assay solution (25 mM MES + 50 mM NaCl + 5 mM DTT, pH 6.0) in advance for later use. Dilute the detection substrate H-Gly-Arg-AMC to a 200 µM solution with the assay solution for standby. Prepare the working solution of compounds to be tested using the assay solution, with the concentration of working solution being 10 times the final test concentration. Dilute CTSC and CTSL, respectively, with cold activation solution. Thoroughly mix the two activation solutions containing the proteins to achieve final concentrations of 300 nM for CTSL and 440 nM for CTSC. After co-incubation for 1 h, the activated CTSC treated with CTSL can be used for the enzymatic activity inhibition efficacy test of compounds. Dilute the activated CTSC to 4.4 nM with cold assay buffer. Incubate 4 μL of the activated CTSC with 1 μL of the compound working solution (test group) or 1 μL of blank assay solution (control group) at room temperature for 3 h. Then, add 5 μL of the detection substrate to achieve a final concentration of 100 μM. Mix 5 µL each of the assay solution and the substrate solution as the blank group. After 1 h, the absorbance of detection substrate was measured using a multifunctional microplate reader at excitation/emission wavelengths of 380 nm/460 nm. The inhibitory efficacy of molecules on enzyme activity was calculated based on the absorbance difference between test group and control group. […] Each group of tests mentioned above was independently repeated at least 3 times, and IC50 values were calculated using SPSS 10.0.

CTSC and NSPs = assay: AIA model, serum CTSC and NSPs activities, stated together; type: in vivo, Sprague-Dawley rats; details: rat AIA, low-dose (15 mg/kg) and medium-dose (30 mg/kg) groups
Protocol: as §2

CTSL = target: T2, CTSL (Homo sapiens, UniProt P07711); assay: Human recombinant cathepsins isolated enzyme assay, CTSL; type: biochemical; details: read-out: CTSL Enz (IC50: μM)
T2 construct: purchased R&D Systems
T2 sequence (P07711 114-333): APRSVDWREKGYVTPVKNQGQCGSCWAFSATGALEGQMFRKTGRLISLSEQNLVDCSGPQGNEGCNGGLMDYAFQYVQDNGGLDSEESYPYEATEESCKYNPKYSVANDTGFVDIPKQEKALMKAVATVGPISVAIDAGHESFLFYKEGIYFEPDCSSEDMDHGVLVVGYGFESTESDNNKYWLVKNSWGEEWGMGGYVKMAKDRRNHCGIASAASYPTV
From the text: as §1

Dipeptidyl Peptidase 8, sequence (Q6V1X1 whole entry, species assumed): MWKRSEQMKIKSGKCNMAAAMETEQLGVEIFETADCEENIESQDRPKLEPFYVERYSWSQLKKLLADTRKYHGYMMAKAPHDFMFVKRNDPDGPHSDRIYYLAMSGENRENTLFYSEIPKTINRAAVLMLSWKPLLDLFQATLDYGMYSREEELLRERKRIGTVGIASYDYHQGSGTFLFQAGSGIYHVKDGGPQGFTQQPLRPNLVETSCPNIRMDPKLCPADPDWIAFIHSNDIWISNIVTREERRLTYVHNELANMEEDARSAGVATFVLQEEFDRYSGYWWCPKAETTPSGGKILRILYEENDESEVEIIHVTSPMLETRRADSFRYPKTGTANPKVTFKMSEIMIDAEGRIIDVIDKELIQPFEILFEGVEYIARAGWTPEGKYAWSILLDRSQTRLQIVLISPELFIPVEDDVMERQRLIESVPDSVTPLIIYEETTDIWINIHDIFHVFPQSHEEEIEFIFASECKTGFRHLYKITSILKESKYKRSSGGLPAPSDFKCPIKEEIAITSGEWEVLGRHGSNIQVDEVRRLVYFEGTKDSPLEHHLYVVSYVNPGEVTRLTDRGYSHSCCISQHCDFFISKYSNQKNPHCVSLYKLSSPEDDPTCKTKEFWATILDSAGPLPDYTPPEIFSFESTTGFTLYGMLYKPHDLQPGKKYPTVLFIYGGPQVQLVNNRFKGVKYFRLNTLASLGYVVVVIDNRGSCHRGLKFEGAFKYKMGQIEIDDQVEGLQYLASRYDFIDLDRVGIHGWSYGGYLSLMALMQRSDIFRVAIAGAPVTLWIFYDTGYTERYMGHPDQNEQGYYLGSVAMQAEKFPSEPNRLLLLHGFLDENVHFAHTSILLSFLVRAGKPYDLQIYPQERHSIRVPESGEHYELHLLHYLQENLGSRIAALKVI

C[C@@H]1C[C@H]2OC(=O)[C@@]3(C)CCC[C@@](C)([C@@H]23)[C@@]1(O)CCc1ccoc1 [Marrubiin, marrubiin]
IC50 (Dipeptidyl Peptidase 8): > 10 µM
IC50 (Dipeptidyl Peptidase 9): > 10 µM
IC50 (CTSK): > 5 µM
serum NE activity, % of control group (NE): ~47%
IC50 (CTSC): 57.5 ± 1.3 nM
serum activities of CTSC and NSPs (CTSC and NSPs): no significant reduction effect
IC50 (CTSL): 4.4 ± 0.5 µM
